Source: patent US20200038415A1, “AMINOSTEROL COMPOSITIONS AND METHODS OF USING THE SAME FOR TREATING ERECTILE DYSFUNCTION” (Enterin, Inc., priority 2018, published 2020)
Values joined by “and” are separate entries in the source; they are usually repeats but may differ in a detail not shown here. Equal values may be shown once. “Also recorded” adds a separate entry of the source.

What was measured:
[1] = Preclinical oral bioavailability and intestinal absorption in rats; type: in vivo; conditions: oral radioactive ENT-01, portal blood concentrations
[2] = Pharmacokinetics of orally administered squalamine (ENT-01) in Stage 1; type: in vivo, human; conditions: based on PK of intravenously administered squalamine in prior clinical studies
Procedure: PK data were collected on the 10 patients enrolled in Stage 1 and 10 patients enrolled in Stage 2 to determine the extent of systemic absorption. In Stage 1, PK data were obtained at each visit, pre-medication, at 1, 2, 4, 8 and 24 hours (Table 10). In Stage 2, PK was measured on days 1 and 6 of the randomization period pre-medication, at 1, 2, 4 and 8 hours (Table 11).
The mean Cmax, Tmax and T1/2 and AUC of the squalamine ion following squalamine (ENT-01) oral dosing for Stage 1 patients. The PK analyses are only approximate, as the lower limit of the validated concentration range was 10 ng/ml; most of the measured concentrations fell below that value. The mean Cmax, Tmax and T1/2 and AUC of the squalamine ion following squalamine (ENT-01) oral dosing for Stage 2 patients. The PK analyses are only approximate, as the lower limit of the validated concentration range was 0.5 ng/ml.

[3] = test system: PD patients with constipation; assay: Safety and adverse event profile, Stage 1 and 2 combined (44 dosed); type: in vivo, human
Procedure: Fifty patients were enrolled and 44 were dosed. In Stage 1, 10 patients were dosed, 1 (10%) withdrew prior to completion and 9 (90%) completed dosing. In stage 2, 6 (15%) patients had ≥3 CSBM/week at the end of the run-in period and were excluded, 34 patients were dosed and bowel response was assessable in 31 (91%). Two patients (5.8%) were terminated prior to completion because of recurrent dizziness, and 3 others withdrew during dosing (8.8%): 2 because of diarrhea and 1 because of holiday. Fifteen patients were randomized.

[4] = test system: PD patients with constipation; assay: Safety and adverse event profile, Stage 1; type: in vivo, human
Text: Tolerability limits included diarrhea or vomiting.

[5] = test system: PD patients with constipation; assay: CNS symptoms in Stage 2 (UPDRS, MMSE, PDHQ, BDI-II, sleep diary); type: in vivo, human; conditions: for hallucinations and delusions improved or disappeared during treatment: 6 patients with hallucinations or delusions at baseline
Text: (5) Sleep Diary (participants completed a sleep diary on a daily basis throughout the study. The diaries included time into bed and estimated time to sleep as well as wake time and duration during the night.);
(8) Beck Depression Inventory (BDI-II);
(9) Unified Parkinson's Disease Rating Scale (UPDRS), which consists of 42 items in four subscales (Part I=Non-Motor Aspects of Experiences of Daily Living (nM-EDL) (1.1 cognitive impairment, 1.2 hallucinations and psychosis, 1.3 depressed mood, Part II=Motor Aspects of Experiences of Daily Living (M-EDL), Part III=Motor Examination, and Part IV=Motor Complications;
(10) Mini Mental State Examination (MMSE);
(12) The University of Miami Parkinson's Disease Hallucinations Questionnaire (UM-PDHQ);
Exploratory end-points, in addition to constipation, included for example, (i) depression assessed using the Beck Depression Inventory (BDI-II) (Steer et al. 2000) and Unified Parkinson's Disease Rating Scale (UPDRS); (ii) cognition assessed using the Mini Mental State Examination (MMSE) (Palsteia et al. 2018), Unified Parkinson's Disease Rating Scale (UPDRS), and Trail Making Test (TMT); (iii) sleep and REM-behavior disorder (RBD) using a daily sleep diary, I-Button Temperature Assessment, a REM sleep behavior disorder (RBD) questionnaire (RBDQ) (Stiasny-Kolster et al. 2007), and the UPDRS; (iv) hallucinations assessed using the PD hallucinations questionnaire (PDHQ) (Papapetropoulos et al. 2008), the UPDRS, and direct questioning; (v) fatigue using the Parkinson's Disease Fatigue Scale (PFS-16) and the UPDRS; (vi) motor functions using the UPDRS; and (vii) non-motor functions using the UPDRS.
(§1) Assessments were made at baseline and at the end of the fixed dose and washout periods. Circadian system status was evaluated by continuously monitoring wrist skin temperature (Thermochron iButton DS1921H; Maxim, Dallas) following published procedures (Sarabia et al. 2008).
An exploratory analysis was done with respect to the sleep data, the body temperature data, mood, fatigue, hallucinations, cognition and other motor and non-motor symptoms of PD. Continuous measurements within a subject were compared with a paired t-test and continuous measurements between subject groups were compared with a two-group t-test. Categorical data were compared with a chi-squared test or a Fisher's exact test if the expected cell counts are too small for a chi-squared test.

[6] = test system: PD patients with constipation; assay: Circadian rhythm of wrist skin temperature; type: in vivo, human; conditions: for circadian rhythm of skin temperature: markers of healthy circadian function (IS, RA, CFI, IV): fixed dose vs baseline, 12 evaluable patients
Procedure: (6) I-Button Temperature Assessment. The I-Button is a small, rugged self-sufficient system that measures temperature and records the results in a protected memory section. The Thermochron I-Button DS1921H (Maxim Integrated, Dallas, Tex.) was used for skin temperature measurement. I-Buttons were programmed to sample every 10 mins., and attached to a double-sided cotton sport wrist band using Velcro, with the sensor face of the I-Button placed over the inside of the wrist, on the radial artery of the dominant hand. Subjects removed and replaced the data logger when necessary (i.e., to have a bath or shower). The value of skin temperature assessment in sleep research is that the endogenous skin warming resulting from increased skin blood flow is functionally linked to sleep propensity. From the collected data, the mesor, amplitude, acrophase (time of peak temperature), Rayleight test (an index of interdaily stability), mean waveforms are calculated.);
as §1
Circadian rhythm of skin temperature was evaluable in 12 patients (i.e., those who had recordings that extended from baseline through washout). Circadian system functionality was evaluated by continuously monitoring wrist skin temperature using a temperature sensor (Thermochron iButton DS1921H; Maxim, Dallas, Tex.) (Sarabia et al. 2008). […]
Briefly, this analysis includes the following parameters: (i) the inter-daily stability (the constancy of 24-hour rhythmic pattern over days, IS); (ii) intra-daily variability (rhythm fragmentation, IV); (iii) average of 10-minute intervals for the 10 hours with the minimum temperature (L10); (iv) average of 10-minute intervals for the 5 hours with the maximum temperature (M5) and the relative amplitude (RA), which was determined by the difference between M5 and L10, divided by the sum of both. […]

## CC(C)[C@@H](CC[C@@H](C)[C@H]1CC[C@H]2[C@@H]3[C@H](O)C[C@H]4C[C@@H](NCCCNCCCCN)CC[C@]4(C)[C@H]3CC[C@]12C)OS(=O)(=O)O (single isomer, unassigned) [squalamine (ENT-01), squalamine]
[1]
  absorption from the intestine: low
[2]
  oral bio-availability (estimated): less than 0.3%
[2]; listed as aminosterol
  oral bio-availability (estimated): < 0.3%
[3]; 1/44 patients
  worsening of hemorrhoids, patients: 2.2%
[3]; 2/44 patients
  worsening of acid reflux, patients: 4.5%
[3]; 3/44 patients
  flatulence, patients: 6.8%
  vomiting, patients: 6.8%
[3]; 8/44 patients
  dizziness, patients: 18%
[3]; 11/44 patients
  abdominal pain, patients: 32%
[3]; in vivo
  outcome of all other AEs: resolved spontaneously without discontinuation
[4]; Stage 1, 4/10 patients
  diarrhea, patients: 40%
  nausea, patients: 40%
[4]; Stage 1, share of AEs
  AEs confined to the GI tract: 88%
[5]
  hallucinations and delusions improved or disappeared during treatment: 5 of 6 and five
[5]; listed as aminosterol
  hallucinations and delusions improved or disappeared during treatment: five and 5 of 6
[5]; baseline 2.2 episodes/week to 0 at maximal dose
  improvement of arm or leg thrashing frequency: 100%
[5]; beyond 125 mg
  total sleep time versus baseline: consistently higher than baseline
[5]; in 1 patient
  hallucinations/delusions did not return following discontinuation: 4 weeks
[5]; in another patient
  hallucinations/delusions did not return following discontinuation: 2 weeks
[5]; one patient
  time free of hallucinations following cessation of dosing: 1 month
[6]
  circadian rhythm of skin temperature: markers of healthy circadian function (IS, RA, CFI, IV): significant positive impact; also recorded: improved all markers of healthy circadian function
[6]; listed as Aminosterol
  circadian rhythm of skin temperature: markers of healthy circadian function (IS, RA, CFI, IV): improved all markers of healthy circadian function
[6]; wash-out period
  circadian parameters during wash-out (IS, CFI): improvement persisted for several of these circadian parameters
